In ChEMBL document CHEMBL5291721, “A preclinical secondary pharmacology resource illuminates target-adverse drug reaction associations of marketed drugs” (Nat Commun, 2023):

Key:
Motilin receptor = Motilin receptor (Homo sapiens, UniProt O43193)
[1] = molecular target: T1, Amine oxidase [flavin-containing] A (Homo sapiens, UniProt P21397); type: functional
T1 sequence (P21397 whole entry): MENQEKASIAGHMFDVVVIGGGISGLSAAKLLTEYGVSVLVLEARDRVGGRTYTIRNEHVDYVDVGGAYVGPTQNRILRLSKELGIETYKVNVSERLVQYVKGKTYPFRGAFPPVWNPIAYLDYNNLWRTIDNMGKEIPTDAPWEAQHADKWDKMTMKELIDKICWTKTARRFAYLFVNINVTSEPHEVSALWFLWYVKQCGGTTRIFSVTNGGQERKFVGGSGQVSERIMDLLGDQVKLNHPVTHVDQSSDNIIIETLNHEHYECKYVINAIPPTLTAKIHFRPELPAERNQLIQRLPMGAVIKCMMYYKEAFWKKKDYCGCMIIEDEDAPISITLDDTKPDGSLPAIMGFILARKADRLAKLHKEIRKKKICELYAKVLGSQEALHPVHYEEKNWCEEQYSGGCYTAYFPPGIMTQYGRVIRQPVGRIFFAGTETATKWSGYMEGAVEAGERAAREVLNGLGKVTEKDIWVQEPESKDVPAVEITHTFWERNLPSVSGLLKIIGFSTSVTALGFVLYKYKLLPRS

[2] = molecular target: T2, Neuropeptide Y receptor type 1 (Homo sapiens, UniProt P25929)
T2 sequence (P25929 whole entry): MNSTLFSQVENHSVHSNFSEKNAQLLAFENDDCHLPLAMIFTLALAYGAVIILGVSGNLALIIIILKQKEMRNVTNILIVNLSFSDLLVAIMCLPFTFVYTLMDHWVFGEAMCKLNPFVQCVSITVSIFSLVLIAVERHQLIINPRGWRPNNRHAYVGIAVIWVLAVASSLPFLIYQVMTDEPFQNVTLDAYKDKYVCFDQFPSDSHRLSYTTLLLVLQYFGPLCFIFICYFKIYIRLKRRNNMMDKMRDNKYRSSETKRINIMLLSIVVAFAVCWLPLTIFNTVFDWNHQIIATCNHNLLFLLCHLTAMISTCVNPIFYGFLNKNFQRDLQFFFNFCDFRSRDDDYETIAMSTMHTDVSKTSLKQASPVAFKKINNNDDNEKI

D(1A) dopamine receptor = D(1A) dopamine receptor (Homo sapiens, UniProt P21728); type: functional, cell-based
D(1A) dopamine receptor, sequence (P21728 whole entry): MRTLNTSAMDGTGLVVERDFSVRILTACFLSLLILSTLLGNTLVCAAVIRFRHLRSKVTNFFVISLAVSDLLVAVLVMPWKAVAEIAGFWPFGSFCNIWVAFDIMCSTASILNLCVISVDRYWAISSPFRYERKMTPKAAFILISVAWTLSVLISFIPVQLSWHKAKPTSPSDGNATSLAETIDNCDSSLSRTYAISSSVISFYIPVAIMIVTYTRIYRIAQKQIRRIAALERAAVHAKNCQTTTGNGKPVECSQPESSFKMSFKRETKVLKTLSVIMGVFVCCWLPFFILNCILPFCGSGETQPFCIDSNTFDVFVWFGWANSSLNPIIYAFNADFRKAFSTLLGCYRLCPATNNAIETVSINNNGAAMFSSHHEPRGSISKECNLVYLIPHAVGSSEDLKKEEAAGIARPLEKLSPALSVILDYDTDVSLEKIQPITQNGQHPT

Progesterone receptor = molecular target: T3, Progesterone receptor (Homo sapiens, UniProt P06401); type: functional
T3 sequence (P06401 whole entry): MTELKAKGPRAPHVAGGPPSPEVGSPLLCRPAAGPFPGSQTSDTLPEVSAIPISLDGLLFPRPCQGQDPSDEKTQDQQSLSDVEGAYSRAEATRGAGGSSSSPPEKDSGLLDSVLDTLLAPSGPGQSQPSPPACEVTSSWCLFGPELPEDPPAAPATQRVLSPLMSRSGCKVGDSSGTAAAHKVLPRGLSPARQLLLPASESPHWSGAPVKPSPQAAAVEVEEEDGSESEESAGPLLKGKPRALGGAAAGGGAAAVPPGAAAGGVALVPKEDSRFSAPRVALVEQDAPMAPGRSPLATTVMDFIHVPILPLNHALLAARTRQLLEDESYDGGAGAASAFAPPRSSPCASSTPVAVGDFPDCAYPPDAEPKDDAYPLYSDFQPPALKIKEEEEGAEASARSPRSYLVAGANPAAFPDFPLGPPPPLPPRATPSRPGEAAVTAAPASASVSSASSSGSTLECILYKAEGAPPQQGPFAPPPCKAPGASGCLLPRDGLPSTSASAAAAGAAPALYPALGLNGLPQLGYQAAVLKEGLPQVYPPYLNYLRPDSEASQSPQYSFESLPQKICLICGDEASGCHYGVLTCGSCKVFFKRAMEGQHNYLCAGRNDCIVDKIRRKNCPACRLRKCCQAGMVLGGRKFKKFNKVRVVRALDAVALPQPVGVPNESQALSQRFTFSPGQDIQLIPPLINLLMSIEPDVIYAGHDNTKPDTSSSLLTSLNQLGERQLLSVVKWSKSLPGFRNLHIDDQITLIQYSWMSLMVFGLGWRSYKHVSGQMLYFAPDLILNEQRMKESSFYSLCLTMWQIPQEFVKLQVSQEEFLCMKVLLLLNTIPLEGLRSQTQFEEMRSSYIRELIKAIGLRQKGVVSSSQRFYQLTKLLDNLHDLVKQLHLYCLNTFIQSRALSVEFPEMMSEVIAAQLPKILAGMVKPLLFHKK

[3] = molecular target: Voltage-gated inwardly rectifying potassium channel KCNH2 (Homo sapiens, UniProt Q12809); type: functional
Voltage-gated inwardly rectifying potassium channel KCNH2, sequence (Q12809 whole entry): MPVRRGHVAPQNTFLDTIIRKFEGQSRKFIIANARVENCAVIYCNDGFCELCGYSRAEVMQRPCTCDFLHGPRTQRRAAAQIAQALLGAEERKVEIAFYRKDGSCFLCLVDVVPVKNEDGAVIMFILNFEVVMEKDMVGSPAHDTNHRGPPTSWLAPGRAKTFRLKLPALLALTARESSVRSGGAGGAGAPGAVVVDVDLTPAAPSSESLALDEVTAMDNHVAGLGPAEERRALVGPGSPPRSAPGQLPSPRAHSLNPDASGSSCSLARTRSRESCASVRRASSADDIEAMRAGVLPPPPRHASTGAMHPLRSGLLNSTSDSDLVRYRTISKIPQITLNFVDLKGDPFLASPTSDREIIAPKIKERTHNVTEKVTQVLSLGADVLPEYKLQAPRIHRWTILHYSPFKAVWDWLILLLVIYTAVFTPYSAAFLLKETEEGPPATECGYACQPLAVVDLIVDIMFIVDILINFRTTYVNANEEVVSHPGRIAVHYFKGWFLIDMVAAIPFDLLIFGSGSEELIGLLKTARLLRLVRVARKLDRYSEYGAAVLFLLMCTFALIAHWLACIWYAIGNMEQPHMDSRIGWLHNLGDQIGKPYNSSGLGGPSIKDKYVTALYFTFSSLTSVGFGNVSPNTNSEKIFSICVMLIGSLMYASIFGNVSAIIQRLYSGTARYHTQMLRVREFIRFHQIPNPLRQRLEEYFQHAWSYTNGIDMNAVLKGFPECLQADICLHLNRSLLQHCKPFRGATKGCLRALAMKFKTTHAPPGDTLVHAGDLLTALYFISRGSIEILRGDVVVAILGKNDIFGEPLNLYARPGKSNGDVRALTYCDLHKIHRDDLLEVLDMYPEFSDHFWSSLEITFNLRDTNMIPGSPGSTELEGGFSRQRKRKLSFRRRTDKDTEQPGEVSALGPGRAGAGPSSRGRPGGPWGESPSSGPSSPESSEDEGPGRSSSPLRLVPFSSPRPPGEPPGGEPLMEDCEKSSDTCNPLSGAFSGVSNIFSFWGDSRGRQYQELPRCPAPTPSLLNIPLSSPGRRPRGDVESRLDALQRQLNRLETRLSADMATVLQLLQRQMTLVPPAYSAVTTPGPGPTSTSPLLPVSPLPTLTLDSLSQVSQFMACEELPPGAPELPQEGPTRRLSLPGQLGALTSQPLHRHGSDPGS

[4] = molecular target: T4, 5-hydroxytryptamine receptor 1A (Homo sapiens, UniProt P08908); type: functional, cell-based
T4 sequence (P08908 whole entry): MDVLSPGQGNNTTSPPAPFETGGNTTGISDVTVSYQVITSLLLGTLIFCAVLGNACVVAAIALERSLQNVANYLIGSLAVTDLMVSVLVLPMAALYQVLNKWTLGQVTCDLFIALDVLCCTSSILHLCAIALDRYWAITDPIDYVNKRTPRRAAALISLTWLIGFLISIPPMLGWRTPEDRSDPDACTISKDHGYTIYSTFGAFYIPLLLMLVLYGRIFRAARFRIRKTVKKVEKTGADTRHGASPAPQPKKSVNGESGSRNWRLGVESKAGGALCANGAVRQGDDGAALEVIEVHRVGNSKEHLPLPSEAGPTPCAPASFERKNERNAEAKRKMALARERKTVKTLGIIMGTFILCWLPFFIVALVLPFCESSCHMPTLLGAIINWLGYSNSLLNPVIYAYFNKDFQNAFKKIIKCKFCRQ

[5] = molecular target: Kappa-type opioid receptor (Homo sapiens, UniProt P41145)
Kappa-type opioid receptor, sequence (P41145 whole entry): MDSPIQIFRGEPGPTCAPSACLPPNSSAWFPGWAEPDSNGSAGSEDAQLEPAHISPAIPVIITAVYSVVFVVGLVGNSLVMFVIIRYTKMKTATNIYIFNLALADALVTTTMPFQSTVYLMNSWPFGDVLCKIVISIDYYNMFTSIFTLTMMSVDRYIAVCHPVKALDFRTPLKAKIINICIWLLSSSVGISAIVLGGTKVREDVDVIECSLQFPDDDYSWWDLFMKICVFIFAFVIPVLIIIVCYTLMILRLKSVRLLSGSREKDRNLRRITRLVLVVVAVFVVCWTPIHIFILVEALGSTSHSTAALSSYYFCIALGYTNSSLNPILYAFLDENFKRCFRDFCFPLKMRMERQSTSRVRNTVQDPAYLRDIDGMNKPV
Note: assay procedure not described here.

Motilin receptor, sequence (O43193 whole entry): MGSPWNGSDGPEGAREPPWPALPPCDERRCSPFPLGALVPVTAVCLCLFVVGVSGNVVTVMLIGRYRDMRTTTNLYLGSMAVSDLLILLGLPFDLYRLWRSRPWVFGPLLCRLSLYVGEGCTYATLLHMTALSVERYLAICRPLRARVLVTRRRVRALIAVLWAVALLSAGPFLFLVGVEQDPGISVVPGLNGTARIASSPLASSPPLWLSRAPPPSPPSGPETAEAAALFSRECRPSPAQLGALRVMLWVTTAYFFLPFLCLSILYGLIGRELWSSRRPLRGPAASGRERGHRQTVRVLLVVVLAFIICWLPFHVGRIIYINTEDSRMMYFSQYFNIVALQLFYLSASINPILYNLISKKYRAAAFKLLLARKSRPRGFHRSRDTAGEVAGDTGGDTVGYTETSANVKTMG

Structure (SMILES): CC(=O)c1ccc(S(=O)(=O)NC(=O)NC2CCCCC2)cc1 [ACETOHEXAMIDE]
- AC50 (Motilin receptor): > 10 µM
- AC50 [1]: > 10 µM
- AC50 [2]: > 10 µM
- AC50 (D(1A) dopamine receptor): > 10 µM
- AC50 (Progesterone receptor): > 10 µM
- AC50 [3]: > 30 µM
- AC50 [4]: > 30 µM
- AC50 [5]: > 10 µM

Structure (SMILES): COc1cc(C)c(/C=C/C(C)=C/C=C/C(C)=C/C(=O)O)c(C)c1C [ACITRETIN]
- AC50 (Motilin receptor): > 10 µM
- AC50 [1]: > 10 µM
- AC50 [2]: > 10 µM
- AC50 (D(1A) dopamine receptor): > 10 µM
- AC50 (Progesterone receptor): > 30 µM
- AC50 [3]: > 30 µM
- AC50 [4]: > 10 µM
- AC50 [5]: > 10 µM

Structure (SMILES): CCC1(CCC(C)C)C(=O)NC(=O)NC1=O [AMOBARBITAL]
- AC50 (Motilin receptor): > 10 µM
- AC50 [1]: > 10 µM
- AC50 [2]: > 10 µM
- AC50 (D(1A) dopamine receptor): > 10 µM
- AC50 (Progesterone receptor): > 10 µM
- AC50 [3]: > 30 µM
- AC50 [4]: > 10 µM
- AC50 [5]: > 10 µM

Structure (SMILES): COc1ccc(C2C(=O)c3ccccc3C2=O)cc1 [ANISINDIONE]
- AC50 (Motilin receptor): > 10 µM
- AC50 [1]: 91 µM
- AC50 [2]: > 10 µM
- AC50 (D(1A) dopamine receptor): > 30 µM
- AC50 (Progesterone receptor): > 30 µM
- AC50 [3]: > 30 µM
- AC50 [4]: > 10 µM
- AC50 [5]: > 10 µM

Structure (SMILES): O=C(O)c1ccc(NC(=O)[C@H](Cc2ccc(O)cc2)NC(=O)c2ccccc2)cc1 [BENTIROMIDE]
- AC50 (Motilin receptor): > 10 µM
- AC50 [1]: > 10 µM
- AC50 [2]: > 10 µM
- AC50 (D(1A) dopamine receptor): > 10 µM
- AC50 (Progesterone receptor): > 10 µM
- AC50 [3]: > 30 µM
- AC50 [4]: > 10 µM
- AC50 [5]: > 10 µM

Structure (SMILES): NS(=O)(=O)c1cc2c(cc1Cl)N=C(CSCc1ccccc1)NS2(=O)=O [BENZTHIAZIDE]
- AC50 (Motilin receptor): > 10 µM
- AC50 [1]: > 30 µM
- AC50 [2]: > 10 µM
- AC50 (D(1A) dopamine receptor): > 10 µM
- AC50 (Progesterone receptor): > 30 µM
- AC50 [3]: > 30 µM
- AC50 [4]: > 10 µM
- AC50 [5]: > 10 µM

Structure (SMILES): CC(C)[C@@H](C)/C=C/[C@@H](C)[C@H]1CC[C@H]2/C(=C/C=C3\C[C@@H](O)CC[C@@H]3C)CCC[C@]12C [DIHYDROTACHYSTEROL]
- AC50 (Motilin receptor): > 10 µM
- AC50 [1]: > 10 µM
- AC50 [2]: > 10 µM
- AC50 (D(1A) dopamine receptor): > 10 µM
- AC50 (Progesterone receptor): 11.2 µM
- AC50 [3]: > 30 µM
- AC50 [4]: > 10 µM
- AC50 [5]: > 10 µM

Structure (SMILES): CC(=O)[C@H]1CC[C@H]2[C@@H]3C[C@H](C)C4=CC(=O)CC[C@]4(C)[C@H]3[C@@H](O)C[C@]12C [MEDRYSONE]
- AC50 (Motilin receptor): > 10 µM
- AC50 [1]: > 10 µM
- AC50 [2]: > 10 µM
- AC50 (D(1A) dopamine receptor): > 10 µM
- AC50 [3]: > 30 µM
- AC50 [4]: > 10 µM
- AC50 [5]: > 10 µM

Structure (SMILES): CCCC(C)(COC(N)=O)COC(N)=O [MEPROBAMATE]
- AC50 (Motilin receptor): > 10 µM
- AC50 [1]: > 30 µM
- AC50 [2]: > 10 µM
- AC50 (D(1A) dopamine receptor): > 10 µM
- AC50 (Progesterone receptor): > 10 µM
- AC50 [3]: > 30 µM
- AC50 [4]: > 10 µM
- AC50 [5]: > 10 µM

Structure (SMILES): COc1ccc2cc(CCC(C)=O)ccc2c1 [NABUMETONE]
- AC50 (Motilin receptor): > 10 µM
- AC50 [2]: > 10 µM
- AC50 (D(1A) dopamine receptor): > 30 µM
- AC50 (Progesterone receptor): > 10 µM
- AC50 [3]: > 30 µM
- AC50 [4]: > 10 µM
- AC50 [5]: > 10 µM
